From patent US10550165B2, “Peptide for inducing regeneration of tissue and use thereof” (STEMRIM INC., priority 2011, dated 2020)

Assays:
[1] = tested on: rat cerebral infarction model; assay: Middle cerebral artery thread occlusion model (cerebral infarction); type: in vivo; details: 50 μg caudal vein
Source text: Eight- to ten-week-old male Wister rats were used. Rats were anesthetized by isoflurane inhalation while warming on a keep-warm mat with a body temperature monitor. After confirming that the anesthetic effect was sufficient, cervical hair was removed to expose the skin. The surgical site was sterilized with alcohol. Along the cervical median line, the skin was incised with a scalpel. After the right external carotid artery was ligated and the right common carotid artery was pressurized to temporarily block the blood flow, an occlusion thread made of #4 monofilament nylon with siliconized tip was inserted into the right external carotid artery toward the right internal carotid artery. While releasing the pressure on the common carotid artery, the occlusion thread was advanced along with the blood stream from the internal carotid artery up to the bifurcation to the middle cerebral artery so that the blood flow was blocked. Furthermore, the thread around the right common carotid artery was ligated to completely block the blood flow for 50 minutes. After removing the occlusion thread and loosening the ligature at the common carotid artery, the skin was sutured to complete the surgery.
50 μg of synthetic peptide (1-44) was administered at the caudal vein. The first administration was carried out 6 hours after the production of cerebral infarction. Then, the peptide was administered five times at 24-hour intervals (five days in total).
After 14 days of the final drug administration, the rats were given sufficiently deep anesthesia, and placed in a container filled with carbon dioxide. The complete arrest of heartbeat and breathing was confirmed. Brains were excised and immediately fixed by immersion in buffered 10% formalin. After paraffin embedding, thin sections were prepared and stained with hematoxylin-eosin. Four sections were prepared from each brain at 1.92 mm anterior to bregma (1.92), 0.60 mm anterior to bregma (0.60), 1.56 mm posterior to bregma (−1.56), and 3.24 mm posterior to bregma (−3.24), and the areas were compared.

[2] = tested on: PDGFRα-positive, CD44-positive cells in the peripheral blood; assay: Mobilization of PDGFRα-positive, CD44-positive cells into peripheral blood (FACS); type: in vivo, mouse; details: 10 μg via the caudal vein, C57Bl6 mice, blood after 12 hours; PBS group 1.33%
Description: 10 μg of synthetic peptide (amino acids of positions 1 to 44) was dissolved in 200 μl of PBS and administered to C57B16 mice (female, 8 weeks old) via the caudal vein using a syringe with 30-gauge needle. An equal volume of PBS was administered as a negative control. After 12 hours, peripheral blood was collected from the left ventricle of the heart under systemic anesthesia with isoflurane. After adding 3 ml of PBS (Nacalai tesque; Cat. 14249-95), 3 ml of Ficoll-Paque Plus (GE Healthcare; Cat. 17-1440-02) was overlaid onto the blood. The blood was centrifuged in a centrifuge at 400 G and 25° C. for 45 minutes. The upper serum layer was discarded, and only the cells seen as a white band in the intermediate layer were collected. Then, 45 ml of PBS was added to the collected cells, and centrifuged in a centrifuge at 800 G and 25° C. for 20 minutes. After the supernatant was discarded, 10 ml of PBS was added and centrifuged at 1500 rpm and 25° C. for 10 minutes. The supernatant was discarded and 1 ml of hemolysis buffer (HLB; Immuno-Biological Laboratories) was added to the cells. After pipetting, the cells were allowed to stand for 5 minutes. Then, 10 ml of PBS was added to the cells and centrifuged at 1500 rpm and 25° C. for 10 minutes. […] The cells prepared as described above were analyzed using FACSCant™ II.

synthetic peptide (1-44): chemically synthesized HMGB1 peptide, amino acids 1 to 44, mouse HMGB1 sequence (MGKGDPKKPRGKMSSYAFFVQTCREEHKKKHPDASVNFSEFSKK; UniProt P63158 1-44, looked up, fragment)
infarction area (% ratio to normal brain area in the right brain), four sections ([1]; five administrations, versus negative control (PBS), FIG. 17): significantly reduced as compared to the negative control group | animals showing expansion of the infarction to the cortex ([1]; N=10, first 6 h after infarction, five times at 24-hour intervals, 14 days after final administration, negative control 8 of 11): only one mouse showed expansion of the infarction to the cortex | animals in which the infarction was limited in the basal nucleus ([1]; N=10, five administrations, 14 days after final administration): 9 | proportion of PDGFRα-positive, CD44-positive cells in the peripheral blood, average [2]: 4.33%
